The values below are quoted from earlier work in patent US20170119791A1, “METHODS AND COMPOSITIONS FOR DERMATOLOGICAL USE COMPRSING BETAMETHASONE AND BIOPOLYMERS” (APEX LABORATORIES PRIVATE LIMITED, priority 2015, published 2017).

Like-named read-outs stand apart in the source and are kept apart here.

Take `CCC(=O)OCC(=O)[C@@]1(OC(=O)CC)[C@@H](C)C[C@H]2[C@@H]3CCC4=CC(=O)C=C[C@]4(C)[C@@]3(F)[C@@H](O)C[C@@]21C` [Betamethasone dipropionate, 9-fluoro-11β, 17,21-trihydroxy-16β-methylpregna-1,4-diene-3,20-dione 17,21-dipropionate]: the Solubility entry was “freely soluble” (in acetone), “sparingly soluble” (in alcohol) and “insoluble” (in water).
Consider `CCCCC(=O)O[C@]1(C(=O)CO)[C@@H](C)C[C@H]2[C@@H]3CCC4=CC(=O)C=C[C@]4(C)[C@@]3(F)[C@@H](O)C[C@@]21C` [Betamethasone valerate, 9-Fluoro-11β, 17,21-trihydroxy-16β-methylpregna-1,4-diene-3,20-dione 17-valerate], for which the Solubility result reads like this: (in acetone) “freely soluble”; (in alcohol) “soluble”; (in benzene) “slightly soluble”; (in chloroform) “freely soluble”; (in ether) “slightly soluble”; (in water) “practically insoluble”.
